Values quoted from earlier work as cited in patent US11865103B2, “Methods of treating disorders associated with glycosylation defective proteins” (CASE WESTERN RESERVE UNIVERSITY, priority 2016, dated 2024).

Tested on: TgAC1; Clrn1^N48K/N48K mouse model
Details: cited from earlier work

CC(C)(O)Cn1nc(-c2ccccc2)c2c(Cl)c(-c3ccccc3)nnc21 [BF844]
Effect on hearing loss: mitigate hearing loss
